In article PMC6274355, “Synthesis and Anti-HIV-1 Activity Evaluation for Novel 3a,6a-Dihydro-1H-pyrrolo[3,4-c]pyrazole-4,6-dione Derivatives” (Molecules, 2016):
Read-outs that look alike come from different tables or passages of the source.

What was measured:
Cytotoxicity assay (MTT) = assay type: cell-based; details: human; C8166 cells, MTT, 72 h; means of two separate experiments; read-out: CC50 (50% cytotoxic concentration)
Experimental: The cytotoxicty assay was performed by 3-(4,5-dimethylthiazol-2-yl)-2,5-diphenyl tetrazoliumbromide (MTT) method. Briefly, 100 μL 4 × 10^4 C8166 cells were seeded each well with 100 μL of different concentrations of compounds in a 96-well plate. The plate was incubated 72 h at 37 °C, 5% CO2 incubator. MTT (20 μL, 5 mg/mL) was added to each well and the plate was incubated at 37 °C for 4 h. Supernatant (100 μL) was discarded and 20% SDS-50% DMF (100 μL) was added. The plates were read at 570/630 nm by a Bio-Tek Elx 800 reader (Bio-Tek Instruments, Inc., Winooski, VT, USA). The 50% cytotoxic concentration (CC50) was calculated.

HIV-1IIIB = test: Syncytia inhibition assay (HIV-1IIIB infected C8166 cells); assay type: cell-based; details: for TI (in vitro therapeutic index, CC50 value/EC50 value): CC50 in C8166 cells / EC50 syncytia inhibition; for EC50: HIV-1IIIB infected C8166 cells, 72 h, means of two separate experiments, read-out: EC50 (50% effective concentration, reduces syncytia formation by 50%)
Experimental: Target compounds 6–16 were evaluated for their inhibitory activity against HIV-1 replication in acutely infected C8166 cells in vitro according to the previously described method, and AZT was used as a positive control. The assay results of the target compounds are presented in Table 1 and Table 2, expressed as CC50, EC50 and therapeutic index (TI).
The syncytia inhibition assay was applied by counting syncytia which were formed by HIV-1IIIB infected C8166 cells. Briefly, HIV-1IIIB supernatant and C8166 cells were seeded in a 96-well plate with different concentration of compounds. The plate was incubated in a 37 °C, 5% CO2 incubator for 72 h. Syncytia were counting under an inverted microscope and 50% effective concentration (EC50) was calculated. Therapeutic index (TI) was calculated by the ratio of CC50/EC50.

[1] = Human immunodeficiency virus 1, C8166, 72 h

EC50 (HIV-1IIIB; [1]) | EC50 (HIV-1IIIB) | Compound | CC50 at 72 h (Cytotoxicity assay (MTT)) | TI (in vitro therapeutic index, CC50 value/EC50 value) (HIV-1IIIB)
5.37 µM | – | COc1c(O)cccc1C1=NN(c2ccc(F)cc2)C2C(=O)N(CCc3ccc(F)cc3)C(=O)C12 (stereo not shown) [7a, 1-(4-Fluorophenyl)-5-[2-(4-fluorophenyl)ethyl]-3-(3-hydroxy-2-methoxyphenyl)-3a,6a-dihydro-1H-pyrrolo[3,4-c]pyrazole-4,6-dione] | 39.1 µM | 7.29
9.21 µM | – | O=C1C2C(c3ccccc3)=NN(c3ccc(F)cc3)C2C(=O)N1CCc1ccc(F)cc1 (stereo not shown) [7b, 1-(4-Fluorophenyl)-5-[2-(4-fluorophenyl)ethyl]-3-phenyl-3a,6a-dihydro-1H-pyrrolo[3,4-c]pyrazole-4,6-dione] | 148 µM | 16.03
35.3 µM | – | O=C1C2C(c3ccc(O)cc3O)=NN(c3ccc(F)cc3)C2C(=O)N1CCc1ccc(F)cc1 (stereo not shown) [9a, 3-(2,4-Dihydroxyphenyl)-1-(4-fluorophenyl)-5-[2-(4-fluorophenyl)ethyl]-3a,6a-dihydro-1H-pyrrolo[3,4-c]pyrazole-4,6-dione] | 173 µM | 4.91
5.74 µM | – | O=C1C2C(c3cccc(F)c3O)=NN(c3ccc(F)cc3)C2C(=O)N1CCc1ccc(F)cc1 (stereo not shown) [9b, 1-(4-Fluorophenyl)-5-[2-(4-fluorophenyl)ethyl]-3-(3-fluoro-2-hydroxyphenyl)-3a,6a-dihydro-1H-pyrrolo[3,4-c]pyrazole-4,6-dione] | 141 µM | 24.58
4.21 µM | – | O=C1C2C(c3cc(F)ccc3O)=NN(c3ccc(F)cc3)C2C(=O)N1CCc1ccc(F)cc1 (stereo not shown) [9c, 1-(4-Fluorophenyl)-5-[2-(4-fluorophenyl)ethyl]-3-(5-fluoro-2-hydroxyphenyl)-3a,6a-dihydro-1H-pyrrolo[3,4-c]pyrazole-4,6-dione] | 159 µM | 37.70
20.4 µM | – | O=C1C2C(c3cccc(Cl)c3O)=NN(c3ccc(F)cc3)C2C(=O)N1CCc1ccc(F)cc1 (stereo not shown) [9d, 3-(3-Chloro-2-hydroxyphenyl)-1-(4-fluorophenyl)-5-[2-(4-fluorophenyl)ethyl]-3a,6a-dihydro-1H-pyrrolo[3,4-c]pyrazole-4,6-dione] | 332 µM | 16.23
7.55 µM | – | O=C1C2C(c3cccc([N+](=O)[O-])c3O)=NN(c3ccc(F)cc3)C2C(=O)N1CCc1ccc(F)cc1 (stereo not shown) [9e, 1-(4-Fluorophenyl)-5-[2-(4-fluorophenyl)ethyl]-3-(2-hydroxy-3-nitrophenyl)-3a,6a-dihydro-1H-pyrrolo[3,4-c]pyrazole-4,6-dione] | 49.5 µM | 6.56
4.9 µM | – | Cc1cccc(C2=NN(c3ccc(F)cc3)C3C(=O)N(CCc4ccc(F)cc4)C(=O)C23)c1O (stereo not shown) [9f, 1-(4-Fluoro-phenyl)-5-[2-(4-fluoro-phenyl)-ethyl]-3-(2-hydroxy-3-methyl-phenyl)-3a,6a-dihydro-1H-pyrrolo[3,4-c]pyrazole-4,6-dione] | 151 µM | 30.73
< 5 µM | 3.98 µM | COc1cccc(C2=NN(c3ccc(F)cc3)C3C(=O)N(CCc4ccc(F)cc4)C(=O)C23)c1O (stereo not shown) [9g, 1-(4-Fluorophenyl)-5-[2-(4-fluorophenyl)ethyl]-3-(2-hydroxy-3-methoxyphenyl)-3a,6a-dihydro-1H-pyrrolo[3,4-c]pyrazole-4,6-dione] | > 419 µM | >105.26
8.52 µM | – | COc1ccc(C2=NN(c3ccc(F)cc3)C3C(=O)N(CCc4ccc(F)cc4)C(=O)C23)c(O)c1 (stereo not shown) [10a, 1-(4-Fluorophenyl)-5-[2-(4-fluorophenyl)ethyl]-3-(2-hydroxy-4-methoxyphenyl)-3a,6a-dihydro-1H-pyrrolo[3,4-c]pyrazole-4,6-dione] | 21.4 µM | 2.51
116 µM | – | CCOc1cccc(C2=NN(c3ccc(F)cc3)C3C(=O)N(CCc4ccc(F)cc4)C(=O)C23)c1O (stereo not shown) [10c, 1-(4-Fluorophenyl)-5-[2-(4-fluorophenyl)ethyl]-3-(3-ethoxy-2-hydroxyphenyl)-3a,6a-dihydro-1H-pyrrolo[3,4-c]pyrazole-4,6-dione] | > 407 µM | >3.51
11.1 µM | – | COc1cccc(C2=NN(c3ccc(F)cc3)C3C(=O)N(CCc4ccc(F)cc4)C(=O)C23)c1OC (stereo not shown) [12a, 3-(2,3-Dimethoxyphenyl)-1-(4-fluorophenyl)-5-[2-(4-fluorophenyl)ethyl]-3a,6a-dihydro-1H-pyrrolo[3,4-c]pyrazole-4,6-dione] | > 407 µM | >36.56
7.11 µM | – | O=C1C2C(c3cccc4c3OCO4)=NN(c3ccc(F)cc3)C2C(=O)N1CCc1ccc(F)cc1 (stereo not shown) [12b, 3-Benzo[1,3]dioxol-4-yl-1-(4-fluorophenyl)-5-[2-(4-fluorophenyl)ethyl]-3a,6a-dihydro-1H-pyrrolo[3,4-c]pyrazole-4,6-dione] | 222 µM | 31.29
35.6 µM | – | O=C1C2C(c3nccs3)=NN(c3ccc(F)cc3)C2C(=O)N1CCc1ccc(F)cc1 (stereo not shown) [14a, 1-(4-Fluorophenyl)-5-[2-(4-fluorophenyl)ethyl]-3-thiazol-2-yl-3a,6a-dihydro-1H-pyrrolo[3,4-c]pyrazole-4,6-dione] | 158 µM | 4.46
26.2 µM | – | O=C1C2C(c3ccccn3)=NN(c3ccc(F)cc3)C2C(=O)N1CCc1ccc(F)cc1 (stereo not shown) [14b, 1-(4-Fluorophenyl)-5-[2-(4-fluorophenyl)ethyl]-3-pyridin-2-yl-3a,6a-dihydro-1H-pyrrolo[3,4-c]pyrazole-4,6-dione] | 150 µM | 5.73
12.1 µM | – | COc1cccc(C2=NN(c3cccc(F)c3)C3C(=O)N(CCc4ccc(F)cc4)C(=O)C23)c1O (stereo not shown) [15a, 1-(3-Fluorophenyl)-5-[2-(4-fluorophenyl)ethyl]-3-(2-hydroxy-3-methoxyphenyl)-3a,6a-dihydro-1H-pyrrolo[3,4-c]pyrazole-4,6-dione] | 129 µM | 10.67
113 µM | – | COc1cccc(C2=NN(c3ccccc3F)C3C(=O)N(CCc4ccc(F)cc4)C(=O)C23)c1O (stereo not shown) [15b, 1-(2-Fluorophenyl)-5-[2-(4-fluorophenyl)ethyl]-3-(2-hydroxy-3-methoxyphenyl)-3a,6a-dihydro-1H-pyrrolo[3,4-c]pyrazole-4,6-dione] | > 419 µM | >3.71
25.5 µM | – | COc1cccc(C2=NN(c3ccc(Cl)cc3)C3C(=O)N(CCc4ccc(F)cc4)C(=O)C23)c1O (stereo not shown) [15c, 1-(4-Chlorophenyl)-5-[2-(4-fluorophenyl)ethyl]-3-(2-hydroxy-3-methoxyphenyl)-3a,6a-dihydro-1H-pyrrolo[3,4-c]pyrazole-4,6-dione] | 166 µM | 6.52
65.9 µM | – | COc1cccc(C2=NN(c3ccc(F)cc3F)C3C(=O)N(CCc4ccc(F)cc4)C(=O)C23)c1O (stereo not shown) [15d, 1-(2,4-Difluorophenyl)-5-[2-(4-fluorophenyl)ethyl]-3-(2-hydroxy-3-methoxyphenyl)-3a,6a-dihydro-1H-pyrrolo[3,4-c]pyrazole-4,6-dione] | > 404 µM | >6.12
32.1 µM | – | COc1cccc(C2=NN(c3ccc(C(F)(F)F)cc3)C3C(=O)N(CCc4ccc(F)cc4)C(=O)C23)c1O (stereo not shown) [15e, 5-[2-(4-Fluorophenyl)-ethyl]-3-(2-hydroxy-3-methoxyphenyl)-1-(4-trifluoromethylphenyl)-3a,6a-dihydro-1H-pyrrolo[3,4-c]pyrazole-4,6-dione] | > 379 µM | >11.81
65.3 µM | – | COc1cccc(C2=NN(c3ccc(S(C)(=O)=O)cc3)C3C(=O)N(CCc4ccc(F)cc4)C(=O)C23)c1O (stereo not shown) [15f, 5-[2-(4-Fluorophenyl)ethyl]-3-(2-hydroxy-3-methoxyphenyl)-1-(4-methanesulfonylphenyl)-3a,6a-dihydro-1H-pyrrolo[3,4-c]pyrazole-4,6-dione] | > 372 µM | >5.70
30.4 µM | – | COc1cccc(C2=NN(c3ccc(S(N)(=O)=O)cc3)C3C(=O)N(CCc4ccc(F)cc4)C(=O)C23)c1O (stereo not shown) [15g, 4-[5-[2-(4-Fluorophenyl)ethyl]-3-(2-hydroxy-3-methoxyphenyl)-4,6-dioxo-4,5,6,6a-tetrahydro-3aH-pyrrolo[3,4-c]pyrazol-1-yl]-benzenesulfonamide] | 46 µM | 1.51
